Test results published in patent US20030040095A1, “Method for the production of pharmaceutically active recombinant proteins” (priority 2001, published 2003).

Experiments:
Format in all cases: cell-based
[1] = tested on: recombinant CHO cell line; assay: tc-uPA activity in culture of recombinant CHO cells, chromogenic assay (Pefachrome UK); conditions: for Activity of tc-uPA: 1 L Spinner-flask culture, 37° C., 5 days; for Activity on the chromogenic substrate: average of four fermentations
Procedure: (§1) At first, the optimal conditions related to butyrate concentration and temperature in a laboratory scale were determined. Preliminary experiments aimed at optimizing the Na-butyrate concentration were performed in a 1 L culture of the recombinant CHO cell line (1×10^6 cells/ml), in order to achieve the best tc-uPA (HMW and LMW) production and the higher cell viability after 5 days of cultivation in spinner-flasks.
(§2) In table 1 are reported the cell viability and the uPA yield after 5 days cultivation in 1 L Spinner-flask culture at 37° C. and at different Na-butyrate concentrations. uPA activity was followed by a chromogenic assay using the Pefachrome® UK (54-46) (Pentapharm, LTD, Basel, Switzerland) as chromogenic substrate, according to the manufacturer's instructions; the cell viability was followed every day and measured microscopically after Trypan blue dye-exclusion method, as described in Doyle et al. A, Griffiths, J B and Newell, D G (Eds.) (1994), in “Cell & Tissue Culture: Laboratory Procedures”. John Wiley & Sons. New York.
(§3) A second set of experiments was performed at 1.2 mM butyrate, in a 5-days fermentation to determine the optimal temperature in a 2 L culture (1.5-2×10^6 cells/ml) of the recombinant CHO cell line in bioreactor.
When the cellular density reached values of about 2×10^6 living cells/ml, the cells were separated from the exhausted medium by tangential filtration (or centrifugation). Cells were then resuspended in the bioreactor in the same original volume of fresh medium CHOMaster® with the addition of sodium butyrate to achieve a final concentration of 1.2 mM.
The production of active u-PA (tc-UPA HMW and LMW) was monitored by a chromogenic test on a specific substrate, Pefachrome® UK. A progressive increase of the activity was observed up to maximal values as high as 7000 IU/ml, achieved after 4-5 days of fermentation. At this point the cells were harvested and subsequently discarded and the exhausted culture medium, containing tc-uPA, was further processed for purification.

[2] = tested on: recombinant CHO cell line; assay: as above; conditions: 1.2 mM butyrate, 32° C., after 12 days, 2 L bioreactor
[3] = tested on: recombinant CHO cell line; assay: Cell viability of recombinant CHO culture, Trypan blue dye-exclusion; conditions: 1.2 mM butyrate, 32° C., after 12 days, 2 L bioreactor
[4] = tested on: recombinant CHO cell line; assay: as above
Procedure: as §1, §2, §3

Which “Activity of tc-uPA” value ([1]; 0.6 mM Na-Butyrate) does the source give for CCCC(=O)[O-].[Na+] [Na-Butyrate, sodium butyrate] here?
Its value is 526 IU/ml.

And the “Activity of tc-uPA” value ([1]; 1.2 mM Na-Butyrate)?
Its value is 959 IU/ml.

And the “Activity of tc-uPA (5 days cultivation)” value ([1]; 1.2 mM Na-Butyrate, 32° C., 2 L bioreactor)?
The value was 800 IU/ml.

And the “Activity of tc-uPA (5 days cultivation)” value ([1]; 1.2 mM Na-Butyrate, 34° C., 2 L bioreactor)?
The value was 5043 IU/ml.

And the “Activity of tc-uPA (5 days cultivation)” value ([1]; 1.2 mM Na-Butyrate, 37° C. (control), 2 L bioreactor)?
The value was 1830 IU/ml.

What about the “maximal activity on Pefachrome UK” value ([1]; 1.2 mM sodium butyrate, 34° C., after 4-5 days of fermentation, 2 L bioreactor) of the same compound?
Its value is no more than 7000 IU/ml.

And the “Activity of tc-uPA” value ([1]; 2.5 mM Na-Butyrate)?
The value was 361 IU/ml.

What about the “Activity on the chromogenic substrate” value ([1]; 1 day after addition of 1.2 mM Na-butyrate, 34° C., 2 L bioreactor) of the same compound?
Its value is 155 ± 23%.

And the “Activity on the chromogenic substrate” value ([1]; 2 days after addition of 1.2 mM Na-butyrate, 34° C., 2 L bioreactor)?
The value was 662 ± 32%.

And the “Activity on the chromogenic substrate” value ([1]; 3 days after addition of 1.2 mM Na-butyrate, 34° C., 2 L bioreactor)?
Its value is 1995 ± 13%.

And the “Activity on the chromogenic substrate” value ([1]; 4 days after addition of 1.2 mM Na-butyrate, 34° C., 2 L bioreactor)?
Its value is 3170 ± 23%.

And the “Activity on the chromogenic substrate” value ([1]; 5 days after addition of 1.2 mM Na-butyrate, 34° C., 2 L bioreactor)?
Its value is 5043 ± 13%.

And the “activity (tc-uPA)” value [2]?
The value was 3961 U/ml.

And the Cell viability [3]?
Its Cell viability is 63%.

And the Cell viability ([4]; 0.6 mM Na-Butyrate, 1 L Spinner-flask culture, 37° C., 5 days)?
The Cell viability was 83%.

And the Cell viability ([4]; 1.2 mM Na-Butyrate, 1 L Spinner-flask culture, 37° C., 5 days)?
Its Cell viability is 76%.

And the Cell viability ([4]; 1.2 mM Na-Butyrate, 32° C., 5 days, 2 L bioreactor)?
The Cell viability was 84%.

And the Cell viability ([4]; 1.2 mM Na-Butyrate, 34° C., 5 days, 2 L bioreactor)?
The Cell viability was 67%.

And the Cell viability ([4]; 1.2 mM Na-Butyrate, 37° C. (control), 5 days, 2 L bioreactor)?
Its Cell viability is 53%.

What about the Cell viability ([4]; 2.5 mM Na-Butyrate, 1 L Spinner-flask culture, 37° C., 5 days) of the same compound?
The Cell viability was 56%.

And the Cell viability ([4]; 1 day after addition of 1.2 mM Na-butyrate, 34° C., 2 L bioreactor, average of four fermentations)?
The Cell viability was 87 ± 6%.

What about the Cell viability ([4]; 2 days after addition of 1.2 mM Na-butyrate, 34° C., 2 L bioreactor, average of four fermentations) of the same compound?
Its Cell viability is 81 ± 12%.

And the Cell viability ([4]; 3 days after addition of 1.2 mM Na-butyrate, 34° C., 2 L bioreactor, average of four fermentations)?
Its Cell viability is 78 ± 15%.

And the Cell viability ([4]; 4 days after addition of 1.2 mM Na-butyrate, 34° C., 2 L bioreactor, average of four fermentations)?
Its Cell viability is 72 ± 14%.

And the Cell viability ([4]; 5 days after addition of 1.2 mM Na-butyrate, 34° C., 2 L bioreactor, average of four fermentations)?
The Cell viability was 67 ± 10%.
